The assay relates to MCF7. Kind of assay: Growth inhibition of human MCF7 cells at 10 uM incubated for 72 hrs by SRB assay. To be noted: MCF7, 72 h, read-out: GI. It counts as functional. In general terms: In SRB staining, fixed cells bind dye roughly in proportion to their protein.

On to `CCCC(=O)c1c(O)cc(O)c2c1C(=O)c1cc(OC)cc(OC)c1C2=O`, for which the inhibition of growth at 10 µM was 9%.
